How the values were obtained:
IL-15Rα:Fc [1] = experiment: SPR (BIAcore), IL-15Rα:Fc captured by immobilised goat anti-human Fc, KD from kd/ka
IL-15Rα:Fc [2] = experiment: SPR (BIAcore), IL-15Rα:Fc captured by immobilised goat anti-human Fc
IL-15Rα:Fc [3] = experiment: SPR (BIAcore), IL-15Rα:Fc captured by immobilised goat anti-human Fc, test article injected in 3-fold dilutions from 10 µM
human PBMCs = experiment: HuPBMC-pStat5 assay (flow cytometry, lymphocyte subpopulations); assay type: cell-based; details: for EC50 (ng/ml) pSTAT5 CD56bright NK: Table 3, CD56bright NK cells
Protocol: The potency of IL-15 or long acting IL-15 R agonists on various human lymphocyte subpopulations was determined by phospho-STAT5 (Y694) dose response assay. Frozen human PBMCs from multiple donors were supplied by AllCells. 1×10^6 cells/100ul were cultured in complete RPMI media for 2 hours and then incubated with the indicated concentrations (10,000ng/ml-0.001ng/ml serial dilutions) of IL-15 or conjugates for 20minutes at 37c. The cells were then fixed (using BD Cytofix) and permeabilized (using 100% pre-chilled methanol) and stained with antibodies for CD3, CD4, CD8, CD4-Tregs (CD4+CD25+Foxp3+), CD56 and phosphorylated STAT5 (Y694) before analysis by flow cytometry. Concentration-response relationships were used to calculate the EC50 values.
Assessment of in-vitro activity of exemplary long-acting IL-15 receptor agonists (e.g., Conjugates 1, 3 and 5) was carried out by investigating signaling in NK cell subsets of human PBMCs as shown in FIGS. 10A (CD56bright cells) and 10B (CD56dim cells). STAT5 phosphorylation was evaluated as previously described for assessing IL-15 signaling activity of the long acting IL-15 receptor agonists.
A second study was conducted to investigate/compare the pStat5 response of human PBMCs obtained from two donors (CD3, CD4, CD8, CD56 (bright and dim) and CD4-Tregs (CD25+Foxp3+)) to IL-15, Conjugate 1 and Conjugate 5. An […] dose response was examined using a 10-fold dilution with a dose range of 0.001-10000 ng/ml and a 20 min stimulation. Each of the test articles was diluted in IL-15 buffer+0.1% BSA.
Assessment of in vitro activity of Conjugate 1 was carried out by investigating NK and CD8 JAK/STAT signaling after treatment of human PBMCs with IL-15 or Conjugate 1 at a dose range of 0.001-10000 ng/ml. STAT5 phosphorylation was assessed as previously described.

CTLL-2 cells = experiment: Potency assay based on STAT5 phosphorylation in CTLL-2 cells; assay type: cell-based, murine; details: for EC50 (ng/mL) CTLL-2 pSTAT5: Table 2B
Protocol: In the phospho-STAT5 assay following receptor binding, downstream cell signaling can then activate Signal Transducer and Activator of Transcription 5 (STAT5) through phosphorylation to promote gene expression to induce cell proliferation. The activation of phosho-STAT5 is measured in CTLL-2 cells, a murine T lymphocyte cell line, using the phospho-STAT5/total STAT5 multiplexed assay (Meso Scale Discovery, MD) in response to sample and reference treatment for ˜10 minutes.
One day prior to the assay, CTLL-2 cells were split into fresh growth medium [RPMI 1640 supplemented with 10% FBS, 10% T-cell culture supplement (catalog #354115, Corning, Inc., Tewksbury, MA), 2 mM L-glutamate, and 1 mM sodium pyruvate]. On the day of assay, cells were pre-incubated in assay medium (RPMI 1640 supplemented with 1% FBS, 2 mM L-glutamate, and 1 mM sodium pyruvate) for at least four hours, and then plated in assay medium in a 96-well plate at 50,000 cells/well. Dilutions of the test article were prepared in an appropriate buffer immediately prior to assay. Stimulation of CTLL-2 cells was initiated by the transfer of 25X test article solutions to triplicate wells containing CTLL-2 cells. Plates were incubated at 37° C., 5% CO2 for 10 minutes, and the reaction was stopped by cell lysis. Detection of phospho-STAT5 and total STAT5 protein levels in cell lysates was performed using the MSD Phospho (Tyr694)/Total STATa,b Whole Cell Lysate Kit (Meso Scale Discovery, MD).

[4] = PK (MRT) of long-acting IL-15 receptor agonists (Table 2B); assay type: in vivo; details: species not stated
IL-15Rα = IL-15Rα (Homo sapiens, UniProt Q13261); experiment: Receptor affinity for IL-15Rα by surface plasmon resonance (BIAcore); assay type: binding; details: Table 2B; read-out: IL-15Rα KD
IL-15Rα, sequence (Q13261 31-205 limits assumed): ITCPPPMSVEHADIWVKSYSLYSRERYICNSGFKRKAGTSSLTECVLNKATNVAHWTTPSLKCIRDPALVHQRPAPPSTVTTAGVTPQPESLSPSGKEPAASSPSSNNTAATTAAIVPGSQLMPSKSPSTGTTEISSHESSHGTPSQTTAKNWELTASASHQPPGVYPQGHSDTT
Protocol: The affinities of IL-15 and exemplary long acting rIL-15 receptor agonists were measured using Surface Plasmon Resonance (“SPR”) using a BIAcore™ SPR system. Briefly, the surface of a Biacore CM5 sensor chip was activated using a 1:1 mixture of NHS: EDC to generate active NHS esters. Goat anti-human Fc antibody was covalently attached to the surface by injecting it for five minutes in 10 mM sodium acetate (pH 4). There were approximately 8000 RU of antibodies bound to the surface. Any remaining NHS ester was then quenched with ethanolamine.
At the initiation of each injection cycle, IL-15-Rα-Fc was captured on a sensor chip channel by a five-minute injection step in PBSP. Typically, 150-200 RU of receptors were bound on the surface.
Long acting rIL-15 receptor agonist test articles were diluted to 10 µM in PBS (containing 0.05% Tween 20 and 0.1 mg/ml BSA). A series of 3-fold dilutions were made and injected onto a sensor chip which was coated with IL-15Rα. The affinities were measured by determining the ka and kd rates separately, and the ratio between kd and ka was used to calculate the Kd values.
The affinities of exemplary long-acting IL-15 receptor agonists (test articles) for the IL-15 α receptor were measured and compared to IL-15. Affinity was measured by BIAcore using IL-15Rα:Fc captured by immobilized anti-Fc.
The test articles were diluted to 10 μM in PBS (containing 0.05% Tween 20 and 0.1 mg/ml BSA). A series of 3-fold dilutions were made and injected onto a sensor chip which was coated with IL-15Rα. The affinities were measured by determining the ka and kd rates separately, and the ratio between ka and kd was used to calculate the […] values.

IL-15Rα:Fc, sequence (Q13261 31-205): as the sequence (Q13261 31-205 limits assumed) above

Substance: Recombinant human IL-15 (rIL-15), SEQ ID NO: 1 (from UniProt P40933 49-162) (ligand)
- Kd (IL-15Rα:Fc [1]): 0.258 nM
- Kd (IL-15Rα:Fc [2]): 0.258 nM
- koff (IL-15Rα:Fc [3]): 0.000149 s⁻¹
- kon (IL-15Rα:Fc [3]): 578000 M⁻¹ s⁻¹

Substance: [Mono-PEG2-RU-ButryALD-40K]-IL-15 (Conjugate 3) (from UniProt P40933 49-162) (ligand)
- Kd (IL-15Rα:Fc [2]): 0.411 nM

Substance: [Mono-PEG2-RU-ButryALD-40K]-IL-15 [Conjugate 3]
- EC50 (ng/ml) pSTAT5 CD56bright NK (human PBMCs): 69.76 ng/ml
- EC50 (ng/mL) CTLL-2 pSTAT5 (CTLL-2 cells): 16.80 ng/mL
- PK (MRT) [4]: 30 h
- Kd (IL-15Rα): 0.411 nM

Substance: mono-PEG2-RU-ButryALD-20K]-IL-15 (Conjugate 4) (from UniProt P40933 49-162) (ligand)
- Kd (IL-15Rα:Fc [2]): 0.215 nM

Substance: mono-PEG2-RU-ButryALD-20K]-IL-15 [Conjugate 4]
- EC50 (ng/mL) CTLL-2 pSTAT5 (CTLL-2 cells): 6.21 ng/mL
- Kd (IL-15Rα): 0.215 nM

Substance: mono-mPEG-ButryALD-40k-IL-15 (Conjugate 5) (from UniProt P40933 49-162) (ligand)
- Kd (IL-15Rα:Fc [2]): 0.144 nM

Substance: mono-mPEG-ButryALD-40k-IL-15 [Conjugate 5]
- EC50 (ng/ml)-% pSTAT5 CD3 donor1 (human PBMCs; CD3 cells, donor1, 20 min stimulation): 1.3 ng/ml
- EC50 (ng/ml)-% pSTAT5 CD3 donor2 (human PBMCs; CD3 cells, donor2, 20 min stimulation): 1.7 ng/ml
- EC50 (ng/ml)-% pSTAT5 Treg donor1 (human PBMCs; CD4-Treg cells, donor1): 0.44 ng/ml
- EC50 (ng/ml)-% pSTAT5 Treg donor2 (human PBMCs; CD4-Treg cells, donor2): 0.45 ng/ml
- EC50 (ng/ml)-% pSTAT5 CD4 donor1 (human PBMCs; CD4 cells, donor1): 1.3 ng/ml
- EC50 (ng/ml)-% pSTAT5 CD4 donor2 (human PBMCs; CD4 cells, donor2): 1.14 ng/ml
- EC50 (ng/ml)-% pSTAT5 CD8 donor1 (human PBMCs; CD8 cells, donor1): 1.4 ng/ml
- EC50 (ng/ml)-% pSTAT5 CD8 donor2 (human PBMCs; CD8 cells, donor2): 2.5 ng/ml
- EC50 (ng/ml)-% pSTAT5 CD56bright donor1 (human PBMCs; CD56bright cells, donor1): 5.1 ng/ml
- EC50 (ng/ml)-% pSTAT5 CD56bright donor2 (human PBMCs; CD56bright cells, donor2): 4.5 ng/ml
- EC50 (ng/ml)-% pSTAT5 CD56dim donor1 (human PBMCs; CD56dim cells, donor1): 16.48 ng/ml
- EC50 (ng/ml)-% pSTAT5 CD56dim donor2 (human PBMCs; CD56dim cells, donor2): 27.12 ng/ml
- EC50 (ng/ml) pSTAT5 CD56bright NK (human PBMCs): 32.26 ng/ml
- EC50 (ng/ml)-% pSTAT5 CD3 (human PBMCs; Table 7 Summary Table, CD3): 1.3 ng/ml
- EC50 (ng/ml)-% pSTAT5 CD4 (human PBMCs; Table 7 Summary Table, CD4): 1.3 ng/ml
- EC50 (ng/ml)-% pSTAT5 CD8 (human PBMCs; Table 7 Summary Table, CD8): 1.4 ng/ml
- EC50 (ng/ml)-% pSTAT5 CD56bright (human PBMCs; Table 7 Summary Table, CD56bright): 5.1 ng/ml
- EC50 (ng/ml)-% pSTAT5 CD56dim (human PBMCs; Table 7 Summary Table, CD56dim): 16.48 ng/ml
- EC50 (ng/ml)-% pSTAT5 Treg (human PBMCs; Table 7 Summary Table, Treg): 0.44 ng/ml
- IL-15 more potent than conjugate in inducing CD3, CD4, CD8 and Treg cells (human PBMCs; Table 7 data): 5-8 fold
- IL-15 more potent than conjugate in inducing CD56bright and CD56dim cells (human PBMCs; Table 7 data): 40-60 fold
- EC50 (ng/ml)-MFI CD3 donor1 (human PBMCs; pSTAT5 MFI, CD3 cells, donor1): 84.73 ng/mL
- EC50 (ng/ml)-MFI CD3 donor2 (human PBMCs; pSTAT5 MFI, CD3 cells, donor2): 154.2 ng/mL
- EC50 (ng/ml)-MFI Treg donor1 (human PBMCs; pSTAT5 MFI, CD4-Treg cells, donor1): 3.5 ng/mL
- EC50 (ng/ml)-MFI Treg donor2 (human PBMCs; pSTAT5 MFI, CD4-Treg cells, donor2): 5.4 ng/mL
- EC50 (ng/ml)-MFI CD4 donor1 (human PBMCs; pSTAT5 MFI, CD4 cells, donor1): 84.21 ng/mL
- EC50 (ng/ml)-MFI CD4 donor2 (human PBMCs; pSTAT5 MFI, CD4 cells, donor2): 98.18 ng/mL
- EC50 (ng/ml)-MFI CD8 donor1 (human PBMCs; pSTAT5 MFI, CD8 cells, donor1): 53.7 ng/mL
- EC50 (ng/ml)-MFI CD8 donor2 (human PBMCs; pSTAT5 MFI, CD8 cells, donor2): 204.6 ng/mL
- EC50 (ng/ml)-MFI CD56bright donor1 (human PBMCs; pSTAT5 MFI, CD56bright cells, donor1): 24.86 ng/mL
- EC50 (ng/ml)-MFI CD56bright donor2 (human PBMCs; pSTAT5 MFI, CD56bright cells, donor2): 56.9 ng/mL
- EC50 (ng/ml)-MFI CD56dim donor1 (human PBMCs; pSTAT5 MFI, CD56dim cells, donor1): 97.51 ng/mL
- EC50 (ng/ml)-MFI CD56dim donor2 (human PBMCs; pSTAT5 MFI, CD56dim cells, donor2): 283.4 ng/mL
- EC50 (ng/mL) CTLL-2 pSTAT5 (CTLL-2 cells): 1.45 ng/mL
- PK (MRT) [4]: 25 h
- Kd (IL-15Rα): 0.144 nM

Substance: recombinant human IL-15: recombinant human IL-15 obtained from PeproTech, served as the control in the CTLL-2 assay [reference compound]
- average EC50, STAT5 phosphorylation in CTLL-2 cells (CTLL-2 cells; 10-minute treatment, control): 0.00027 µg/mL

Reference: patent publication US20240424115A1, “LONG-ACTING INTERLEUKIN-15 RECEPTOR AGONISTS AND RELATED IMMUNOTHERAPEUTIC COMPOSITIONS AND METHODS” (Nektar Therapeutics, priority 2017, published 2024)
